These results are taken from US7704502B2, “Combinations of antibodies selective for DR5 and other therapeutic agents” (The UAB Research Foundation, priority 2000, dated 2010).

Series [1] has as its system 2LMP xenografts. In words: Analysis of apoptosis in xenografts (TUNEL). The format is in vivo, athymic nude mice. The conditions noted are these: day 14. On the procedure: One group of mice was untreated. The xenografts were dissected for the study of apoptosis on day 14 after tumor cell injection. The reason for the substantial reduction in treatment intensity compared to our standard treatment protocol was to allow adequate tumor tissue for analysis on day 14. Tunel assay for apoptosis in tumor xenografts was performed as follows. Five-micron paraffin sections of tissue were mounted on Superfrost/Plus slides and heated at 58° C. for 1 h. Tissue sections were deparaffinized in three changes of xylene and rehydrated with one change of absolute ethanol, 95% ethanol, and 70% ethanol, each in 5-min increments. Then, the sections were placed in Tris-buffered saline (0.5M Tris base, 0.15 M NaCl, 0.0002% Triton X-100™, pH 7.6). Apoptotic nuclei were detected using an Apop Tag Peroxidase kit (Intergen, Purchase, N.Y.). Proteinase K (20 μg/ml in distilled deionized H2O) was added to the tissue specimens and incubated at room temperature for 15 min. Endogenous peroxidases were quenched with an aqueous solution of 3% hydrogen peroxide for 5 min. Sections were treated with an equilibration buffer for 30 min and then incubated with the TdT/enzyme (diluted in labeling reaction mix) for 1 h at 37° C. using parafilm covers. During this incubation, the TdT enzyme binds the 3′-OH ends of DNA fragments and catalyzes the addition of digoxigenin-labeled and unlabeled deoxynucleotides. Negative controls were incubated with distilled H2O (diluted in labeling reaction mix) instead of the TdT enzyme. A stop buffer was added for 10 min at room temperature to terminate the labeling reaction. An anti-digoxigenin conjugate was added to each slide for 30 min. The chromagen 3,3′ DAB was used to visualize the labeled 3′ OH end of DNA fragments. The slides were then rinsed in deionized water and lightly counterstained with hematoxylin, dehydrated using graded alcohols and xylene and coverlsipped using Permount. Approximately 10 random fields were evaluated for percentage of Tunel stained and percentage of intensely stained apoptotic bodies throughout the tissue.

Series [2] concerns 2LMP human breast cancer xenografts. The series can be described thus: TRA-8 therapy alone or with chemotherapy or radiation, breast cancer xenografts. The format is in vivo, athymic nude mice. The protocol: Athymic nude mice were injected s.c. with 3×10^7 2LMP cells. […] The growth of tumors was monitored over time. […] Tumor size and regression rates were determined.
Data from 6 independent experiments were analyzed by individual experiment. Treatment combinations were compared with respect to in vivo anti-tumor efficacy, i.e., inhibition of tumor growth, which was measured as three endpoints; extension of tumor doubling times, percentage of tumor regressions, and growth rates over time. The actual number of days at which the tumor doubled in surface area (product of two diameters) relative to baseline on day 7 after tumor cell injection was used in the doubling time analysis. The nonparametric Kruskal-Wallis test was used for median tumor doubling time comparisons between treatments. Fisher's exact test was used to compare the proportions of tumor regressions and relapse-free regressions across treatment groups. To determine if any combination therapy produced significant synergistic inhibition of tumor growth, i.e., more than additive, the growth curves from the serial area measurements were compared using a linear mixed model approach over the first 3 weeks after start of therapy (Lindsey, J. K. Models for Repeated Measurements, pp. 100-142, Oxford, 1993). To test for synergistic effects of the combination therapies, an interaction term was included in the model. If the interaction term was significant and the effect was inhibition of growth at a rate greater than additive then the interaction was considered synergistic.
A total of 166 animals, 10 treatment groups, and 6 independent experiments were included in the aggregate analysis. Treatment combinations were compared with respect to in vivo anti-tumor efficacy. The median tumor doubling times were analyzed using the Kruskal-Wallis test and Fisher's exact test was used to compare the proportions of tumor regressions and relapse-free regressions across treatment groups.

The subject of series [3] is Jurkat cells. The series can be described thus: Jurkat cell viability after overnight culture (ATPLite, MTT, PI exclusion). The following applies: 50 ng/ml TRA-8 overnight plus caspase inhibitor. The format is cell-based, human. On the procedure:
Cell viability is determined using (1) the ATPLite® kit according to the manufacturer's instructions (Packard Instruments, Meriden, Conn.); (2) the MTT Cell proliferation/viability kit (Sigma); or (3) PI staining of dead cells and analyzed by flow cytometry. At end of culture, cells are stained with 10 μg/ml PI and PI negative cells are gated as viable cells. For analysis of condensed nuclei of hepatocytes, cells are stained with 10 ng/ml Hoechst 33352 (Molecular Probes) and analyzed by flow cytometry.
(In general: Cellular ATP, detected with luciferase, serves as a proxy for viable cell number.)

Series [4] concerns MMP-1, 3, and 13. The series can be described thus: Production of MMPs by RA synovial cells (ELISA). It counts as cell-based, human. The following applies: overnight; 50 ng/ml interleukin 1b, 10 ng/ml TNF-a, 50 ng/ml TRAIL or TRA-8; vs medium control. On the procedure:
Thus, it is possible that TRAIL, like TNF-α, may serve as a pro-inflammatory cytokine. […] The levels of the MMP-1 and MMP-3 in the culture supernatants are determined by the ELISA kits.
For orientation: In an ELISA, binding on a coated surface is turned into a signal by an enzyme label.

In series [5] the test system is NF-κb. The series can be described thus: Gel-shift assay of NF-κb activation in RA synovial cells. The following applies: 50 ng/ml TRAIL, Fas ligand or TRA-8; 20 ng/ml TNF-a. It counts as cell-based, human. The protocol:
There is considerable evidence to support the concept that there are close links between the signaling of apoptosis and the signaling of proliferation (45). It has been established that DR5 is able to activate a NF-kb pathway in addition to apoptosis signaling transduction, and that NF-κb activation may be able to transduce an anti-apoptosis signal. Therefore a gel-shift assay is carried out. […] The nuclear extracts are prepared and incubated with the […] [^32P]-labeled oligo-DNA probe. The results are analyzed using the cyclone phospha-imager (TopCount NXT, Packard Instrument Company, CT).

Series [6] relates to normal human hepatocytes. The series can be described thus: Hepatocellular toxicity, cell viability (ATPLite). It counts as cell-based. The conditions noted are these: Fas-mediated apoptosis, 6 hours. An excerpt:
For 24-hour cell viability assays, fresh normal human hepatocytes in 96-well plates were purchased from In Vitro Technology (Baltimore, Md.). […] For 6-hour viability assays, normal hepatocytes or hepatocellular cancer cells are isolated from fresh surgical specimens collected from UAB Tissue Procurement Center. All reagents for isolation of human hepatocytes including hepatocytes perfusion buffer, digest medium, washing medium, and attachment medium were purchased from Gibco. The tissue slides are digested in the Hepatocyte Digest Medium at 37° C. with shaking (50 rpm) for one hour. The isolated hepatocytes are harvested by low speed centrifugation (50 g, 3 min), and washed with the Hepatocyte Washing Medium six times. Single cell suspension of hepatocytes are cultured in the Attachment Medium containing 10% FCS in 96-well Matrigel plates (BD) for six hours. Non-attached hepatocytes are removed by twice washing with pre-warmed attachment medium.

Where [7] appears, read: aggregate of 6 experiments, number of animals (%).
The mark [8] stands for this setting: aggregate of 6 experiments, relative to day 7.

Residues, ends and D or L forms follow the SMILES beside them. *: point of attachment. Cbz = O=C(OCc1ccccc1)*; CH2F = FC*

In turn, `COc1cccc2c1C(=O)c1c(O)c3c(c(O)c1C2=O)C[C@@](O)(C(=O)CO)C[C@@H]3O[C@H]1C[C@H](N)[C@H](O)[C@H](C)O1` [Adriamycin, adriamycin (doxorubicin)] came in with a TUNEL stained cells in series [1] (100 μg TRA-8 days 7, 10, adriamycin 3 mg/kg or paclitaxel 10 mg/kg days 8, 11, untreated 4%) of 8%. Besides, in series [1] (same regimen, untreated 1%), the intensely stained cells worked out at 6%. For the same molecule, in series [2] (setting [7]), the “Complete Regressions No relapse (%)” value is reported as 0 and the “Complete Regressions Total (%)” value turned out to be 0. In addition, in series [2] (setting [8]), the “Tumor Doubling Time (mean)” value amounted to 17 days and the “Tumor Doubling Time (median)” value worked out at 18 days. Also, the “inhibition of tumor growth compared to untreated controls” value in series [2] (individual experiments, TRA-8 200 μg i.p. x6, adriamycin 6 mg/kg, paclitaxel 20 mg/kg, 3 Gy 60Co, Kruskal-Wallis on doubling times) was “did not differ from controls”.

Take `CC(NC(=O)C(NC(=O)OCc1ccccc1)C(C)C)C(=O)NC(CC(=O)O)C(=O)CF` (stereo not drawn) [Z-VAD] (Cbz-Val-Ala-Asp-CH2F; configuration not given here): in series [3], the “inhibition of TRA-8-induced cell death” value is listed as “completely inhibited”.

Turning to IL-1b: proinflammatory cytokine, the “production/release of MMPs” value in series [4] was “increased”.

TNF-α: in series [5], the NF-κb activation result is “activated in a time-dependent fashion”. In series [4], the “production/release of MMPs” value was “increased”.

B1: Fas ligand: soluble Fas ligand used with enhancer/crosslinker (protein, UniProt P48023 103-281, looked up)
extracellular domain: QLFHLQKELAELRESTSQMHTASSLEKQIGHPSPPPEKKELRKVAHLTGKSNSRSMPLEWEDTYGIVLLSGVKYKKGGLVINETGLYFVYSKVYFRGQSCNNLPLSHKVYMRNSKYPQDLVMMEGKMMSYCTTGQMWARSSYLGAVFNLTSADHLYVNVSELSLVNFEESQTFFGLYKL
modifications: extracellular domain
notes: soluble Fas ligand used with enhancer/crosslinker
As to B1, the NF-κb activation result in series [5] is listed as “unable to induce”. Also, the “difference in susceptibility among normal hepatocytes, hepatocellular carcinoma cells, and HepG2 cells” value in series [6] is “no significant difference”.
